Assay results published in article doi:10.1101/2025.08.08.668114, “Structure-Activity Relationship Studies Towards Analogues of Pleconaril as Novel Enterovirus-D68 Capsid-Targeting Antivirals” (bioRxiv, 2025).
In brackets after ≈: the same amount, converted by molar mass. Like-named read-outs stand apart in the source and are kept apart here.

What was measured:
physchem = details: kinetic from dmso stock
[1] = tested on: EV-D68 (strain US/MO/14-18949); test: EV-D68 antiviral screening assay in RD cells
[2] = LogD at pH 7.4, shake-flask method; details: for logD: pH 7.4
[3] = Mouse microsomal stability; details: pH 7.4
P-gp (human MDR1) [4] = test: in vitro; details: dog, MDCK-MDR1, MDCKII-MDR1 Papp A→B
[5] = Human microsomal stability; details: for microsomal CLint at 2 µM: human, pH 7.4
in vitro = details: human
P-gp (human MDR1) [6] = test: MDCKII-MDR1 A→B permeability; details: dog, MDCK-MDR1
RD cells = test: RD cell cytotoxicity by MTT assay on uninfected cells; details: geometric mean
[7] = Kinetic aqueous solubility (KSOL), shake-flask method
[8] = tested on: MDCKII cells transfected with human MDR1 (P-gp); test: MDCKII-MDR1 A→B permeability; details: apical to basolateral
EV-D68 = details: in-vitro; read-out: Published EV-D68 EC50; cited from earlier work
[9] = tested on: MDCKII cells transfected with human MDR1 (P-gp); details: dog, MDCK-MDR1
[10] = tested on: human pregnane-X receptor (PXR); design: method as in PMID 37327878; details: cited from earlier work
[11] = tested on: cytochrome P450 (CYP) enzyme; design: method as in PMID 12802751; details: after repeated dosing; cited from earlier work
[12] = tested on: cytochrome P450 (CYP) enzyme; design: method as in PMID 37327878; details: cited from earlier work
[13] = Enterovirus D, EVD68, RD, read-out: EV-D68 pEC50, pEC50 = −log10(EC50) (converted), RD cells
[14] = Enterovirus D, EVD68, RD, read-out: EC50 EV-D68, RD cells, strain US/MO/14-18949, geometric mean

SMILES | solubility kinetic (physchem) | logD [2] | microsomal CLint at 2 µM ([3]; liver microsomes) | EC50 [1, 14] | Papp A→B (P-gp (human MDR1) [4]) | microsomal CLint at 2 µM ([5]; liver microsomes) | CC50 (in vitro; RD cells, uninfected) | also measured
C#CCc1ccc(OCCCc2cc(C(=O)N(C)C)no2)cc1 [Compound 55] | 198 µM (≈ 61.8 µg/mL) | 3.1 | – | – | – | – | – | EC50 [1, 13]: 0.617 µM
CN(C)C(=O)c1cc(CCCn2ccc3cc(-c4noc(C(F)(F)F)n4)cnc32)on1 [Compound 29] | 28 µM (≈ 12.2 µg/mL) | 3.8 | 133 µL/min/mg | 1.89 µM | 15.5 ×10⁻⁶ cm/s | 30 µL/min/mg | > 100 µM | –
CN(C)C(=O)c1cc(-c2cccc(Oc3ccc(-c4noc(C(F)(F)F)n4)cc3)c2)on1 [Compound 31] | – | – | – | 4.87 µM | – | – | > 50 µM | –
CCOC(=O)c1ccc(OCCC2CCN(c3ccc(C)nn3)CC2)cc1 [Compound S-58, Pirodavir, reference compound] | – | – | – | 0.277 µM | – | – | – | microsomal CLint at 2 µM ([3]; microsomes): 580 µL/min/mg; microsomal CLint at 2 µM ([5]; microsomes): 708 µL/min/mg; CC50 (in vitro): > 50 µM; Papp A→B (P-gp (human MDR1) [6]): 9 ×10⁻⁶ cm/s
CCO/N=C/c1ccc(OCCC2CCN(c3ccc(C)nn3)CC2)cc1 [Compound S-57, BTA-188] | – | – | – | – | – | – | – | CC50 (RD cells): > 50 µM
CN(C)C(=O)c1cc(CCCn2ccc3cc(C#N)ccc32)on1 [Compound 25] | – | – | – | 2.87 µM | – | – | > 50 µM | –
Cc1cc(-c2noc(C(F)(F)F)n2)ccc1OCCNc1cc(C(=O)N(C)C)no1 [Compound 24] | – | – | – | > 30.4 µM | – | – | > 50 µM | –
Nc1nc(-c2ccccc2)nc2[nH]nc(Nc3ccc(C(F)(F)F)cc3)c12 [Compound S-60, OBR-5-340, reference compound] | – | – | – | – | – | – | – | EC50 ([1]; read-out: EC50 EV-D68, RD cells, strain US/MO/14-18949, geometric mean): 7.16 µM; Clint HLM ([5]; human liver microsomes): < 10 µL/min/mg; CC50 (RD cells): > 50 µM; LogD (pH 7.4) ([2]; pH 7.4, shake-flask): ≥ 4.5; Solubility, Kinetic (KSOL) [7]: 2 µM (≈ 0.741 µg/mL); MDCKII-MDR1 Papp A→B [8]: 1.8 10^−6 cm s^−1
Cc1cc(-c2noc(C(F)(F)F)n2)ccc1O[C@@H]1CCN(c2cc(C(=O)N(C)C)no2)C1 [Compound 33] | < 10 µM | 4.2 | 38 µL/min/mg | 0.437 µM | 4 ×10⁻⁶ cm/s | 24 µL/min/mg | > 50 µM | Solubility, Kinetic (KSOL) [7]: 9 µM (≈ 4.06 µg/mL)
Cc1cc(CCCOc2c(C)cc(-c3noc(C(F)(F)F)n3)cc2C)on1 [Compound 1, Pleconaril] | 18 µM (≈ 6.86 µg/mL) | 4.2 | 22 µL/min/mg | < 0.0295 µM | 1.4 ×10⁻⁶ cm/s | – | > 50 µM | EC50 ([1]; read-out: EC50 EV-D68, RD cells, strain US/MO/14-18949, geometric mean, listed as Pleconaril (1)): < 0.029 µM; EC50 (EV-D68): 0.43 µM; MDCKII-MDR1 Papp A→B [9]: 1.42 10^−6 cm s^−1; microsomal CLint at 2 µM ([5]; microsomes): 12 µL/min/mg; agonism of human PXR [10]: Neither 1 nor 2 are agonists; CYP induction (side effect) [11]: well-known side effect
Cc1cc(-c2noc(C(F)(F)F)n2)ccc1O[C@H]1CCN(c2cc(C(=O)N(C)C)no2)C1 [Compound 34] | < 10 µM | 4.2 | 41 µL/min/mg | 0.058 µM | 2.5 ×10⁻⁶ cm/s | 22 µL/min/mg | > 50 µM | EC50 [1, 13]: 0.0589 µM; fold more potent than 33 (EV-D68) ([1]; relative to enantiomer 33): 10 fold; Solubility, Kinetic (KSOL) [7]: 7 µM (≈ 3.16 µg/mL)
Cc1cc(-c2noc(C(F)(F)F)n2)ccc1Oc1cncc(-c2cc(C(=O)N(C)C)no2)c1 [Compound 32] | – | – | – | 4.35 µM | – | – | > 50 µM | –
Cc1cc(-c2noc(C(F)(F)F)n2)ccc1OCCCc1cc(C(=O)N(C)C)no1 [Compound 2, CP-11526092, reference compound] | 9 µM (≈ 3.82 µg/mL) | ≥ 4.5 | 24 µL/min/mg | 0.043 µM | 2.3 ×10⁻⁶ cm/s | 11 µL/min/mg | > 42 µM | EC50 [1, 13]: 0.0437 µM; Lipophilic Cellular Efficiency (LipCellE) ([1]; cellular pEC50 − AlogP98): > 3; EC50 (EV-D68): 0.042 µM; MDCKII-MDR1 Papp A→B [9]: 2.26 10^−6 cm s^−1; agonism of human PXR [10]: Neither 1 nor 2 are agonists; CC50 (RD cells; listed as CP-11526092 (2)): > 50 µM; CYP induction according to in-vitro data [12]: still present
Cc1nc(-c2ccc(OCCCCCN3CCN(c4ccnc(N)c4)C3=O)cc2)no1 [Compound S-59, NLD-22] | – | – | – | – | – | – | – | CC50 (RD cells): > 25.6 µM
Cc1cc(-c2noc(C(F)(F)F)n2)ccc1OCCCc1nnc(C(F)(F)F)o1 [Compound 38] | – | – | – | – | – | – | > 50 µM | EC50 ([1]; Enterovirus D, EVD68, RD, read-out: EC50 EV-D68 (Table 4), RD cells, Table 4 head): 39.9 µM
CN(C)C(=O)c1cc(CCCn2ccc3cc(-c4noc(C(F)(F)F)n4)ncc32)on1 [Compound 30] | 30 µM (≈ 13 µg/mL) | 3 | 29 µL/min/mg | 8.43 µM | 3.5 ×10⁻⁶ cm/s | 20 µL/min/mg | > 100 µM | –
